According to patent US20050255118A1, “Methods and composition for treating tumors and metastatic disease” (priority 2004, published 2005):
Read-outs that look alike come from different tables or passages of the source.

Legend:
[1] = mouse, in vivo
Source text: (§4) In-life experimental work commenced on Day 0 and was terminated on Day 80. Five-to-six-weeks-old, female SCID mice were purchased from Taconic Farms, Inc. (Germantown, N.Y.) and acclimated in the laboratories one week prior to experimentation. The animals were housed in a pathogen-free barrier facility in micro-isolator cages, with five animals per cage in a 12-hour light/dark cycle. The animals received filtered Birmingham municipal water and sterile rodent food ad libitum. Mice were fed sterilizable rodent diet (Harlan-Teklad TD8656). Cages were changed twice weekly. The animals were observed daily and clinical signs were noted.
(§5) Animals were randomly divided into six groups of 20 animals each and one group of 30 animals. Two groups (Groups 1 and 5) were treated with Saline Solution 0.9% (saline). Animals in Groups 2, 6, and 7 were treated with natalizumab. Animals in Group 3 were treated with IgG4 (isotype control). Animals in Group 4 were treated with Taxol® (positive control). Treatments with saline, natalizumab, and IgG4 (Groups 1, 2, 3, 5, and 6) were administered IP on Days 14, 17, 21, 24, 28, 31, 35, 38, 42, and 45 (Q3D×2 for five weeks, Friday-Monday schedule). Treatment with natalizumab in Group 7 (a group of 30 mice) was administered on Days 14, 17, 21, 24, 28, 31, 35, and 38 (Q3D×2 for four weeks). On Day 14 natalizumab was administered at a dosage of 10 mg/kg, followed by further treatments with a dosage of 5 mg/kg/dose. […]
(§6) The animals were weighed and the subcutaneous (SC) tumors were measured on the days when treatments were administered starting on Day 14 with an exception of two measurements which were done one day before the injection (on Days 24 and 41). […]
(§7) The number of non-specific deaths, number of partial and complete tumor regressions, number of tumor-free survivors, and the individual animal's time to reach the evaluation size (time to reach four tumor mass doublings) were determined. […] Mean body weights and standard deviations were calculated for each group on each day of data collection (values are presented in Tables 8-9 through 8-15).

[2] = tested on: human MOLT-4 acute lymphoblastic leukemia xenografts; assay: Growth of subcutaneously-implanted human MOLT-4 xenografts in SCID mice; type: in vivo, female SCID mice; conditions: for Effect on growth of SC-implanted MOLT-4 xenografts (primary tumor): treatment after establishment of tumor
Protocol: Mice were fed sterilizable rodent diet (Harlan-Teklad TD8656). Cages were changed twice weekly.
Thirty-to-forty milligram fragments of MOLT-4 human leukemia were implanted in mice near the right auxiliary area using a 12-gauge trocar needle and allowed to grow. The day of tumor fragment implantation was Day 0 of the experiment. Tumors were allowed to reach 75-144 mg in weight (75-144 mm3 in size) before the start of the treatments. A sufficient number of mice were implanted so that tumors in a weight range as narrow as possible were selected for the trial on the day of treatment initiation (Day 14 after tumor implantation). Those animals selected with tumors in the proper size range were randomized into treatment groups. The mean tumor weights on the first day of treatment were ranging from 84 or 96 mg; median tumor weights were 75 or 88 mg on Day 14.
Natalizumab (a 20-mg/mL solution, Gensia Sicor Pharmaceuticals Inc., Lot Nos. F23014 and G23004) and a diluent (Placebo for Tysabri®, Gensia Sicor Pharmaceuticals Inc., Lot No. F85002) were received from Biogen Idec Inc. and were stored at +2-8° C. upon receipt. Vials with a 0.97-mg/mL solution of human immunoglobulin (IgG4) were supplied by Sigma-Aldrich (St. Louis, Mo., Lot No. 122K9159) and were stored at −84° C. upon receipt. A clinical formulation of Taxol® (placlitaxel) (6.0 mg/mL in 50% cremophor-EL/50% ethanol, Bristol-Myers Squibb Company, Princeton, N.J.; Lot No. 2L57296) was purchased and refrigerated upon receipt. Saline (Saline Solution 0.9%, for animal use only) was purchased from Phoenix Pharmaceutical, Inc. (St. Joseph, Mo., Lot Nos. 262053F, 206205F, 208281F) and stored at room temperature. A new bottle of saline was used on each day of formulation.
On Day 14, a 20-mg/mL solution of natalizumab was diluted with Placebo for Tysabri® to 1.0 mg/mL. On subsequent injection days, a 0.5-mg/mL solution of natalizumab was formulated by diluting a 20-mg/mL stock solution with Placebo for Tysabri®. Care was taken not to shake the vials with natalizumab; the vials were inverted to mix. A new vial of natalizumab and Placebo for Tysabri® were used on each day of formulation. On Day 14, a supplied 0.97-mg/mL stock solution of IgG4 was thawed and injected into mice. On subsequent injection days, a 0.5-mg/mL solution of IgG4 was prepared by diluting a 0.97-mg/mL stock solution with Saline Solution 0.9%. A new vial with IgG4 was used on each day of formulation. An aliquot of a commercially formulated 6-mg/mL solution of Taxol® in 50% cremophor-EL/50% ethanol was diluted on each day of injection with Saline Solution 0.9% to make a 1.5-mg/mL solution in 12.5% cremophor-EL/12.5% ethanol/75% saline. All dosing solutions were injected within 2 to 3 hours of formulation.
Primary tumors of animals in Groups 5 and 6 were surgically excised on Day 28, one day after the median tumor weight in Group S reached 466 mg. Administration of anesthesia and surgery/post-surgery recovery procedures were conducted following approved standard laboratory methods. Briefly, each animal was anesthetized and the incision site was prepared with an antiseptic solution. An incision along the periphery of one side of the tumor (no more than 3-4 mm longer than the diameter of the tumor) was made, the skin was reflected and the tumor was everted through the incision. Tumor was dissected away from the skin and muscle. The incision was closed with a 4.0-mm wound clip. Each excised tumor was cut in half, with one half of the tumor frozen in O.C.T. compound and the second half of the tumor preserved in 10% buffered formalin. The site of the resection was monitored for tumor re-growth twice a week and when a new solid tumor was formed, its dimensions were recorded.
Animals No. 1-10 in Groups 1-4 were euthanized on Day 47 after tumor implantation (16 May 2003); Animals No. 11-20 in Groups 1-4 were euthanized on Day 48 (17 May 2003). […]

[3] = tested on: human acute lymphoblastic leukemia xenografts; assay: Necropsy and histopathologic evaluation of xenograft-bearing SCID mice; set-up: species or system female SCID mice; conditions: mouse, in vivo
Protocol: Animals No. 1-10 in Groups 1-4 were euthanized on Day 47 after tumor implantation (16 May 2003); Animals No. 11-20 in Groups 1-4 were euthanized on Day 48 (17 May 2003). All surviving animals in Groups 5 and 6 (except for Animal No. 12 in Group 5 and Animal No. 8 in Group 6, for explanations see below) were euthanized on Day 80 after tumor implantation […]. Animal No. 12 in Group 5 was sacrificed on Day 73 due to excessive tumor weight (>4,000 mg). Animal No. 8 in Group 6 was sacrificed on Day 73 due to tumor ulceration. Five animals in Group 7 were euthanized on Days 14, 21, 28, 35, and ten animals were euthanized on Day 38. Carcasses of all animals alive on Days 47, 48, and 80 were submitted to the Safety Assessment Department of Southern Research Institute for necropsy followed by complete histopathological evaluation. Animals in Group 7 were excluded from necropsy and complete histopathological evaluation. For the animals in Groups 1-6, tumor implantation (subcutaneous) took place on Day 0. Treatment was initiated on Day 14, and treatment was terminated on Day 45. Primary tumor excision occurred on Day 28 post-implantation in Groups 5 and 6. The animals were sacrificed on Day 80. Animals in the non-excision group were sacrificed at days 47-48.
Each tumor weighing more than 100 mg was cut in half and one half of the each tumor was frozen in O.C.T. compound using a dry ice/ethanol slush, and stored at −84° C. Tumors weighing less than 100 mg (tumors of Animals No. 1, 3, 7, 9, 11, 12, 14-18, and 20 in Group 4) were frozen in O.C.T. compound in toto. Tumor of Animals No. 2, 4, 5, 6, 8, 13, and 19 in Group 4, which weighed less than 100 mg, were preserved in 10% buffered formalin in toto. After the completion of the experiment all tumor samples frozen in O.C.T. compound (a total of 145 tumor samples) were shipped to Sierra Biomedical, Division of Charles River Laboratories, to be examined by immunohistochemistry to verify that MOLT-4 was expressing VLA-4 in vivo and thus was a valid tumor model for this study. […]

[4] = Tolerability (deaths, body weight) in MOLT-4 xenograft-bearing SCID mice
Source text: as §4, §5, §6, §7

AS283 cell line = assay: 3H-thymidine incorporation (tritiated thymidine uptake) proliferation assay, AS283; type: cell-based; conditions: 1, 2, 3, 4 and 5 days of exposure, eight concentrations (0.001-100 mg/mL)
Protocol: (§1) In order to assess the potential of natalizumab to induce or inhibit proliferation of transformed cells and clonal expansion possibly leading to neoplasia, experiments were performed to determine the ability of natalizumab to stimulate growth of malignant cells expressing the receptor in vitro, and studies were conducted in animal tumor models.
(§2) The evaluation of positive or negative effects on proliferation of the tumor cell lines was performed using 3H-thymidine incorporation assays. Evaluation of the inhibition or potentiation of human tumor cell growth and/or metastasis was determined using a tumor xenograft nude/SCID mouse model. Thirty-two tumor cell lines were screened. Of the thirty-two tumor cell lines, twelve were colorectal carcinoma, colorectal adenocarcinoma, colon adenocarcinoma, or colon carcinoma cell lines; seven were melanomas or amelanotic melanomas; six were urinary bladder transitional cell carcinomas or urinary bladder carcinomas; three were leukemias; two were lymphomas; and two were prostate carcinomas.
(§3) An adhesion assay for VCAM-1 binding was also performed. Seven of the eleven cell lines evaluated were positive. […] AS283, HT-29, MOLT-4, and UM-UC-3 cell lines were treated with Tysabri® (natalizumab). Tritiated thymidine uptake was measured.

[5] = tested on: human MOLT-4 acute lymphoblastic leukemia xenografts; assay: Growth of subcutaneously-implanted human MOLT-4 xenografts in SCID mice; type: in vivo, female SCID mice; conditions: treatment initiated Day -7
UM-UC-3 cell line = assay: 3H-thymidine incorporation (tritiated thymidine uptake) proliferation assay, UM-UC-3; type: cell-based; conditions: 1, 2, 3, 4 and 5 days of exposure, eight concentrations (0.001-100 mg/mL)
Protocol: as §1, §2, §3

HT-29 cell line = assay: 3H-thymidine incorporation (tritiated thymidine uptake) proliferation assay, HT-29; type: cell-based; conditions: 1, 2, 3, 4 and 5 days of exposure, eight concentrations (0.001-100 mg/mL)
Protocol: as §1, §2, §3

MOLT-4 cell line = assay: 3H-thymidine incorporation (tritiated thymidine uptake) proliferation assay, MOLT-4; type: cell-based, human; conditions: 1, 2, 3, 4 and 5 days of exposure, eight concentrations (0.001-100 mg/mL)
Protocol: as §1, §2, §3

[6] = tested on: tumor cell lines (nine evaluated); assay: Preliminary cell proliferation assay on nine tumor cell lines; type: cell-based; conditions: all nine of the nine cell lines evaluated
Protocol: as §2, §3

CC(=O)O[C@H]1C(=O)[C@@]2(C)[C@H]([C@H](OC(=O)c3ccccc3)[C@]3(O)C[C@H](OC(=O)[C@H](O)[C@@H](NC(=O)c4ccccc4)c4ccccc4)C(C)=C1C3(C)C)[C@]1(OC(C)=O)CO[C@@H]1C[C@@H]2O [Taxol, placlitaxel, reference compound]
Tolerability of administration [1]: well tolerated without deaths or sustained body weight loss | Measurable tumors that doubled their mass once over the course of the experiment ([2]; no excision (Group 4)): three out of eight | Animals with no measurable tumor at termination of the experiment ([2]; no excision, 15 mg/kg/dose IV Q1Dx5 from Day 14): Twelve out of twenty | Effect on growth of SC-implanted MOLT-4 xenografts (primary tumor) ([2]; no excision): very effective in the inhibition | Gross and microscopic lesions, relation to treatment [3]: spontaneous or incidental and unrelated

natalizumab: a humanized antibody against VLA-4 as described in U.S. Pat. Nos. 5,840,299 and 6,033,665
Effect on animal health (body weights over the treatment period) ([4]; mouse, in vivo): did not adversely affect animal health | Tolerability of administration ([4]; non-excision groups, natalizumab and IgG4 IP Days 14-45, Taxol IV Q1Dx5): well tolerated without deaths | Tritiated thymidine uptake: cytotoxic or proliferative effect (AS283 cell line): no evidence of a cytotoxic or proliferative effect | Effect on tumor growth, treatment initiated prior to tumor implantation [5]: significant decrease in tumor growth | Tritiated thymidine uptake: cytotoxic or proliferative effect (UM-UC-3 cell line): no evidence of a cytotoxic or proliferative effect | Median tumor weight ([2]; Day 47, treatment started Day 14 on established tumor, no excision (Groups 2-4)): 1240 mg | Median tumor weight (re-grown tumor) ([2]; Day 80, primary tumor excised Day 28 (Group 6)): 1006 mg | Animals staying tumor-free on day of study termination ([2]; Group 6, Day 80): two | Animals whose tumor re-grew at the site of the primary tumor following excision ([2]; Group 6, excision Day 28): seventeen out of nineteen | Effect on re-growth of tumor at the site of excision of the primary tumor ([2]; Group 6 vs Group 5, excision Day 28): re-grew at a slower rate | Tumors growing / animals with tumor at termination of the experiment ([2]; no excision (Groups 2 and 3)): All twenty tumors grew | Time for median tumor to reach four tumor mass doublings ([2]; primary tumor excised Day 28 (Group 6), not reached): > 66.0 days | Effect on growth of SC-implanted MOLT-4 xenografts (primary tumor) ([2]; no excision): not inhibited | Time for median tumor to reach four tumor mass doublings ([2]; treatment started Day 14 on established tumor, no excision (Groups 2-4)): 33.5 days | Tritiated thymidine uptake: cytotoxic or proliferative effect (HT-29 cell line): no evidence of a cytotoxic or proliferative effect | Exacerbation of growth or metastasis of the xenografts (histopathology) [3]: no evidence of exacerbation of growth or metastasis | Gross and microscopic lesions, relation to treatment [3]: spontaneous or incidental and unrelated | Tritiated thymidine uptake: cytotoxic or proliferative effect (MOLT-4 cell line): no evidence of a cytotoxic or proliferative effect | Preliminary cell proliferation assay: cytotoxic or proliferative effect [6]: no cytotoxic or proliferative effect
